Measured values as given in patent publication US10968227B2, “Isoquinoline ether compounds as mGluR4 allosteric potentiators, compositions, and methods of treating neurological dysfunction” (Vanderbilt University, priority 2016, dated 2021).
In brackets after ≈: the same amount, converted by molar mass.

Legend:
[1] = Rat brain fraction unbound; assay type: in vitro ADME; details: read-out: Rat Fu Brain
2C9 = 2C9 (Homo sapiens (Human), UniProt P11712); experiment: CYP 2C9 inhibition; assay type: in vitro ADME
[2] = Rat intrinsic and hepatic clearance; assay type: in vitro ADME
1A2 = 1A2 (Homo sapiens (Human), UniProt P05177); experiment: CYP 1A2 inhibition; assay type: in vitro ADME
[3] = Human intrinsic and hepatic clearance; assay type: in vitro ADME
[4] = Human plasma fraction unbound; assay type: in vitro ADME; details: read-out: Human Fu Plasma
Brain-plasma partition = assay type: in vivo; details: rat; for unbound brain-to-plasma partition coefficient (Kp,uu): unbound brain-plasma ratio, read-out: Brain-Plasma Kp,ω
[5] = Rat plasma fraction unbound; assay type: in vitro ADME; details: read-out: Rat Fu Plasma
2D6 = 2D6 (Homo sapiens (Human), UniProt P10635); experiment: CYP 2D6 inhibition; assay type: in vitro ADME
3A4 = 3A4 (Homo sapiens (Human), UniProt P08684); experiment: CYP 3A4 inhibition; assay type: in vitro ADME
Kinetic solubility = assay type: physicochemical; details: kinetic from dmso stock

Sequence of 3A4 (P08684 whole entry): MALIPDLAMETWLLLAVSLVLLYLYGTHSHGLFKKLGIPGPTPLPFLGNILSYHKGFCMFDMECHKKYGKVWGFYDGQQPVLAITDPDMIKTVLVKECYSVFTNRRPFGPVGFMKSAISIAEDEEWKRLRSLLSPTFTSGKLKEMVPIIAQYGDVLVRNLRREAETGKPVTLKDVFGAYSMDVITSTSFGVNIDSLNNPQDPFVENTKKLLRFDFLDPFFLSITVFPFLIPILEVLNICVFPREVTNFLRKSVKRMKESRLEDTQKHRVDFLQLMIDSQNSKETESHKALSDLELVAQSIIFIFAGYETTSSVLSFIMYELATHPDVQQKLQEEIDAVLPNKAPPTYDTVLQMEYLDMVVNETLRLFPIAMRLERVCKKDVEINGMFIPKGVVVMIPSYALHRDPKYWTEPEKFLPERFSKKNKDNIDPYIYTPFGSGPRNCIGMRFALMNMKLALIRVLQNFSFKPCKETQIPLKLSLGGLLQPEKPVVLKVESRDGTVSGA
Sequence of 1A2 (P05177 whole entry): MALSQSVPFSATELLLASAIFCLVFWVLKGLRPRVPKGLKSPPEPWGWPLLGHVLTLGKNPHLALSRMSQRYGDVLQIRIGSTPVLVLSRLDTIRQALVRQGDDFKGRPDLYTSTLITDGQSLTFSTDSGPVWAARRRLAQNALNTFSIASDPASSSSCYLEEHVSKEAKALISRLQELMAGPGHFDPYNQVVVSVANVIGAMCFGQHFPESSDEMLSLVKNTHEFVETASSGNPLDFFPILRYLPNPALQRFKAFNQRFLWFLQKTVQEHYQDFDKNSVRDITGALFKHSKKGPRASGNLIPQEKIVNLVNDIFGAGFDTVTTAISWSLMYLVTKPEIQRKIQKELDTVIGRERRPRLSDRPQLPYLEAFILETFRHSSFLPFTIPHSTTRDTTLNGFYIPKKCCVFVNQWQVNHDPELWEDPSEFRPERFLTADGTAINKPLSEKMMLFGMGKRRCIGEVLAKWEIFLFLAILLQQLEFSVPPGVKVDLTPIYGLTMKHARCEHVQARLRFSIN
Sequence of 2C9 (P11712 whole entry): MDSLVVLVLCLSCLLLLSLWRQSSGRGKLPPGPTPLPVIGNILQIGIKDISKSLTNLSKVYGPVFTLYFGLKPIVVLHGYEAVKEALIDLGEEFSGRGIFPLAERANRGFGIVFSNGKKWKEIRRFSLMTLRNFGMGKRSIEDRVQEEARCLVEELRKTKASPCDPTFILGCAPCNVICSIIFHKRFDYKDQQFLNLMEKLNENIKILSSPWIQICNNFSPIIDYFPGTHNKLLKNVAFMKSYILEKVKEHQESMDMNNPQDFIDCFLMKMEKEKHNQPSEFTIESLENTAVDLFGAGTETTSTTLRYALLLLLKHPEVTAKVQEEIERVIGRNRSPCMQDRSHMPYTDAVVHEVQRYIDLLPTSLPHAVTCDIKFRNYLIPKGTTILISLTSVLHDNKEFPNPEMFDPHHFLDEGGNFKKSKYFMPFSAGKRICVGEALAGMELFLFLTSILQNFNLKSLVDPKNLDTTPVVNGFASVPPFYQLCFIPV
Sequence of 2D6 (P10635 whole entry): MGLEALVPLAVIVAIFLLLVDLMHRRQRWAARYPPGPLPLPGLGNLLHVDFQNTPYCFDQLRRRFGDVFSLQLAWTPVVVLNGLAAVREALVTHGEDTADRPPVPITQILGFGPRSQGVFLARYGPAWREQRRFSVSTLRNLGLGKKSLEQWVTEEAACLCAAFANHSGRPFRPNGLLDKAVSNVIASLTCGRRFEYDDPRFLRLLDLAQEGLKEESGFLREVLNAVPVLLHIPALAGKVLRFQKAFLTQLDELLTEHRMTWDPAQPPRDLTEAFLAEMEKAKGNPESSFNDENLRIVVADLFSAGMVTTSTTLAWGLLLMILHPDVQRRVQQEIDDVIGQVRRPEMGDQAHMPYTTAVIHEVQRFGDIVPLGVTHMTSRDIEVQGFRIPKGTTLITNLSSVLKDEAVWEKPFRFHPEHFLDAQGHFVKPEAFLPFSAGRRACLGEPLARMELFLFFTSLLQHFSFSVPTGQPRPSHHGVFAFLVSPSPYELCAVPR

Structure (SMILES) | fraction unbound [1] | IC50 (2C9) [µM] | CLint scaled [2] [mL/min/kg] | Rat CLhep [2] [mL/min/kg] | IC50 (1A2) [µM] | CLint scaled [3] [mL/min/kg] | Human CLhep [3] [mL/min/kg] | fraction unbound [4] | Kp (Brain-plasma partition) | unbound brain-to-plasma partition coefficient (Kp,uu) (Brain-plasma partition) | fraction unbound [5] | IC50 (2D6) [µM] | IC50 (3A4) [µM] | solubility kinetic (Kinetic solubility) [µM]
c1cnc2c(Nc3ccc4c(OCC5CCCOC5)nccc4c3)n[nH]c2c1 (stereo not drawn) [Compound 72] | 0.002 | 3.15 | 273 | 55.7 | 12.9 | 55.7 | 15.2 | 0.009 | 0.52 | 0.13 | 0.008 | 24.6 | 22.7 | 
c1cnc2[nH]nc(Nc3ccc4c(OCCN5CCOCC5)nccc4c3)c2c1 [Compound 94] |  |  | 923 | 65.1 |  | 87.6 | 16.9 |  |  |  |  |  |  | 15.2 ± 1.5 (≈ 5.93 µg/mL)
c1cnc2[nH]nc(Nc3ccc4c(OCC5COCCO5)nccc4c3)c2c1 (stereo not drawn) [Compound 80] | 0.007 | 26.9 | 376 | 59.0 | > 30 | 22.4 | 10.8 | 0.033 | 0.46 | 0.09 | 0.037 | > 30 | > 30 | 1.4 ± 0.1 (≈ 0.528 µg/mL)
C[C@@H]1C[C@H](Oc2nccc3cc(Nc4n[nH]c5cccnc45)ccc23)CO1 [Compound 89] |  |  | 204 | 52.1 |  | 37.8 | 13.5 |  |  |  |  |  |  | 2.7 ± 0.4 (≈ 0.976 µg/mL)
c1cc2cc(Nc3n[nH]c4nccnc34)ccc2c(OCC2CCOCC2)n1 [Compound 82] | 0.004 |  | 154 | 48.1 |  | 67.6 | 15.4 | 0.02 | 0.47 | 0.09 | 0.02 |  |  | 0.5 ± 0.2 (≈ 0.188 µg/mL)
c1cnc2[nH]nc(Nc3ccc4c(O[C@H]5CCOC5)nccc4c3)c2c1 [Compound 66] | 0.006 | > 30 | 210 | 52.5 | > 30 | 37.9 | 13.5 | 0.019 | 0.87 | 0.11 | 0.047 | > 30 | > 30 | 
C[C@H]1OCC[C@H]1Oc1nccc2cc(Nc3n[nH]c4ncccc34)ccc12 [Compound 92] |  |  | 518 | 61.7 |  | 129 | 18.1 |  |  |  |  |  |  | 0.9 ± 0.2 (≈ 0.325 µg/mL)
c1cnc2c(Nc3ccc4c(O[C@@H]5CCOC5)nccc4c3)n[nH]c2c1 [Compound 63] | 0.005 | 13.3 | 181 | 50.5 | 3.96 | 57.8 | 15.4 | 0.018 | 1.27 | 0.18 | 0.036 | > 30 | 22.3 | 
CO[C@H](C)COc1nccc2cc(Nc3n[nH]c4nccnc34)ccc12 [Compound 84] | 0.008 |  | 145 | 47.2 |  | 75.3 | 16.4 | 0.019 | 1.11 | 0.33 | 0.027 |  |  | 
C[C@H]1OCC[C@H]1Oc1nccc2cc(Nc3n[nH]c4cccnc34)ccc12 [Compound 91] |  |  | 377 | 59.0 |  | 109 | 17.6 |  |  |  |  |  |  | 3.3 ± 0.2 (≈ 1.19 µg/mL)

Results, then the compound that gave them:

fraction unbound [1] | IC50 (2C9) [µM] | CLint scaled [2] [mL/min/kg] | Rat CLhep [2] [mL/min/kg] | IC50 (1A2) [µM] | CLint scaled [3] [mL/min/kg] | Human CLhep [3] [mL/min/kg] | fraction unbound [4] | Kp (Brain-plasma partition) | unbound brain-to-plasma partition coefficient (Kp,uu) (Brain-plasma partition) | fraction unbound [5] | IC50 (2D6) [µM] | IC50 (3A4) [µM] | solubility kinetic (Kinetic solubility) [µM] | Structure (SMILES)
 |  | 327 | 57.7 |  | 37 | 13.4 |  |  |  |  |  |  | 0.3 ± 0.2 (≈ 0.106 µg/mL) | COCCOc1nccc2cc(Nc3n[nH]c4ncc(F)cc34)ccc12 [Compound 96]
 |  | 227 | 53.5 |  | 36.8 | 13.4 |  |  |  |  |  |  | 0.7 ± 0.2 (≈ 0.266 µg/mL) | Fc1cnc2[nH]nc(Nc3ccc4c(OC5CCOCC5)nccc4c3)c2c1 [Compound 99]
 |  | 156 | 48.3 |  | 46.1 | 14.4 |  |  |  |  |  |  | 1.1 ± 0.6 (≈ 0.435 µg/mL) | Fc1cnc2c(Nc3ccc4c(OCC5COCCO5)nccc4c3)n[nH]c2c1 (stereo not drawn) [Compound 100]
 |  | 216 | 52.9 |  | 30 | 12.4 |  |  |  |  |  |  | 1.6 ± 0.2 (≈ 0.535 µg/mL) | COCCOc1nccc2cc(Nc3n[nH]c4ccccc34)ccc12 [Compound 98]
 |  | 161 | 48.8 |  | 96.8 | 17.3 |  |  |  |  |  |  | 1 ± 0.1 (≈ 0.353 µg/mL) | COCCOc1nccc2cc(Nc3n[nH]c4cc(F)cnc34)ccc12 [Compound 97]
